Like-named read-outs stand apart in the source and are kept apart here.
What was measured:
[1] = molecular target: hERG (Homo sapiens (Human), UniProt Q12809); assay: hERG patch clamp assay; format: cell-based; conditions: HEK-293 cells stably expressing hERG, pH 7.4, protein-free buffer, read-out: hERG, % inh @ 30 μM
Procedure: Whole-cell patch-clamp was used to directly measure hERG tail currents in HEK-293 cells stably expressing the cloned hERG potassium channel α subunit. Effects of compounds were calculated by measuring inhibition of peak tail current. Experiments were carried out using an aqueous buffer with pH 7.4 at room temperature. There was no protein in the assay buffer. The test concentrations reported are nominal free drug levels.

[2] = Electrocardiography in anesthetized rabbits; format: in vivo; conditions: male, blood, anesthetized rabbit, iv
Procedure: (§1) A dose-response study of test compound was conducted in anesthetized rabbits to assess the cardiac electrophysiologic profile established in the cellular ion channel assays.
(§2) Experiments were performed in propofol-fentanyl anesthetized closed-chest male rabbits. A body surface electrocardiogram (ECG) and an intra-cardiac His-bundle electrogram were continuously monitored and recorded during the studies, using a PoNeMah system and a Prucka electrophysiological recording system, respectively. Test compound was prepared on the day of study in a vehicle of PEG400:ethanol:water (1:1:1) at a dosing concentration of 30 mg/mL. Test compound (n=3) or vehicle (n=3) was given intravenously over 5 minutes via an infusion pump at incremental doses of 3, 10 and 30 mg/kg. The interval between doses was 10 minutes, allowing for a 5-minute test agent infusion and a 5-minute rest period. Blood was sampled at baseline (pre-drug infusion) and immediately at the end of each infusion. For the 30 mg/kg dose, additional blood samples were taken at 10, 20 and 30 minutes after the end of infusion.
(§3) PR interval, QRS duration and QT interval were averaged from a 1 minute ECG recording period at time of blood sampling. QT interval was corrected for heart rate effects using both Fridericia (QTcf) and Van der Water (QTcv) formulae. AH and HV intervals, representing A-V node conduction and His-Purkinje conduction, respectively, were assessed by manual measurements from the His-bundle electrogram. Data were expressed as percent change from pre-drug baseline (mean±SEM) for PR, QRS, AH and HV intervals as well as delta change from the pre-drug infusion baseline (mean±SEM) for QTc intervals. Changes of ≧10% in PR, QRS, and AH intervals, and 20% in HV interval, as well as >10 ms in QTc interval are considered significant based on experience with the model.

[3] = system: anesthetized rabbits; assay: Electrocardiography in anesthetized rabbits; format: in vivo; conditions: anesthetized rabbit
Procedure: as §1, §2, §3

hERG, sequence (Q12809 whole entry): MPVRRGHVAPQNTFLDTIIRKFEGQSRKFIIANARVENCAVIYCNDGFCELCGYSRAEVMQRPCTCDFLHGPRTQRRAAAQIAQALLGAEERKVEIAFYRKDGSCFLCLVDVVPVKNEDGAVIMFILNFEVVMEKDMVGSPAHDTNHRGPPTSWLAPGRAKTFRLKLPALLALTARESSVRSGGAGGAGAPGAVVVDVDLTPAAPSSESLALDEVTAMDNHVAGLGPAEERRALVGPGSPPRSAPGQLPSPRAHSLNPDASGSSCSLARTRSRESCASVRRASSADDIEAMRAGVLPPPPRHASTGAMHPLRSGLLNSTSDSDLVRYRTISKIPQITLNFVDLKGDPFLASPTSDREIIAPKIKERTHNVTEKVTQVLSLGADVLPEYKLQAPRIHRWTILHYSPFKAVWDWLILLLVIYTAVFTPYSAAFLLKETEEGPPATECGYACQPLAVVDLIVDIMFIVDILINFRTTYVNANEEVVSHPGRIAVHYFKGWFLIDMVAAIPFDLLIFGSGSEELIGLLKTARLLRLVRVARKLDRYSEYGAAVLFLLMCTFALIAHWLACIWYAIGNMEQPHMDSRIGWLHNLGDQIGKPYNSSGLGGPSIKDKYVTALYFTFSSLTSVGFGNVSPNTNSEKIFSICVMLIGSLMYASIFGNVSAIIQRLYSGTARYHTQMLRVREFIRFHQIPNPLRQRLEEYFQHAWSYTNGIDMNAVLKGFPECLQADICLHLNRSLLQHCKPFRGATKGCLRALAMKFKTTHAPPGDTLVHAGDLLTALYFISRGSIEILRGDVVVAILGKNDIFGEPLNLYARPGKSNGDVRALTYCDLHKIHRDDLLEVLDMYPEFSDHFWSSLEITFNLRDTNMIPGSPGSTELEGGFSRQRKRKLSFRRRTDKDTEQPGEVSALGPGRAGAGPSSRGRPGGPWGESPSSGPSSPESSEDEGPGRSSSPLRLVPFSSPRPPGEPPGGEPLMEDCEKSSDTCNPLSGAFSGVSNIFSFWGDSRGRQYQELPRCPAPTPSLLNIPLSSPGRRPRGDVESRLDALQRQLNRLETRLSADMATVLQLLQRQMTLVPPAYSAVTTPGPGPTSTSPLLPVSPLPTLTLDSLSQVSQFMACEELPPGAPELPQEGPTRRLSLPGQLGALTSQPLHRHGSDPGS

With `CC(C)[C@@H](NC(=O)NCC(C)(C)O)C(=O)N1CC[C@](O)(c2ccc(Cl)cc2)C(C)(C)C1` [Compound I] the inhibition at 30 µM [1] was 29%, the Cmax ([2]; 30 mg/kg, read-out: Cmax: Total drug at QT effect dose) was 202 µM and the Cmax ([2]; NOEL dose 10 mg/kg, read-out: Cmax: Total drug at NOEL dose) was 65.2 µM. The “NOEL dose (No Observed Effect Level)” value ([3]; iv infusion) was 10 mg/kg, the “QT effect Dose” value ([3]; iv infusion) was 30 mg/kg and the “QTcf, delta” value ([3]; iv infusion, at QT effect dose 30 mg/kg) was 12 ms. The “Cmax: Free drug at QT effect dose” value ([3]; iv, 30 mg/kg) was 26 µM and the “Cmax: Free drug at NOEL dose” value ([3]; iv, NOEL dose 10 mg/kg) was 8.5 µM.

Source: patent publication US8633226B2, “Piperidinyl derivative as a modulator of chemokine receptor activity” (Bristol-Myers Squibb Company, priority 2008, dated 2014)
